Read-outs that look alike come from different tables or passages of the source.
How the values were obtained:
Human Serum Albumin = Human Serum Albumin (Homo sapiens, UniProt P02768); settings: in the presence of HSA at 37°C; comparison in words; cited from earlier work
[1] = system: NCI's 60 human tumor cell line; assay: NCI 60 human tumor cell line assay (sulforhodamine B); assay type: cell-based; settings: read-out: IC50 (the source's name)
Method: Each test compound was screened against a battery of 60 human cell lines obtained from eight organs. In a typical procedure, the cell suspensions that were diluted according to the particular cell type and the expected target cell density (5000-40,000 cells per well based on cell growth characteristics) were added into 96-well microtiter plates. Inoculates were allowed a preincubation period of 24h at 37°C. for stabilization. Dilutions at twice the intended test concentrations were added at time zero in 100-µl aliquots to microtiter plate wells. Usually test compounds were evaluated at five 10-fold dilutions. The highest well concentration used in the test is 10^-4M. The cells are then incubated in the presence of drug (the test compound) for further 48h in 5% CO2 atmosphere and 100% humidity. At the end of this time, the adherent cells are fixed to the plate by means of trichloroacetic acid, and after a number of washes, the cell layer is treated with the protein stain Sulforhodamine B. The optical density which is proportional to protein mass, is then read by automated spectrophotometric plate readers at a wavelength of 515 nm. Readings are transferred to a microcomputer and final reports are generated using especially developed software.

[2] = mean value of GI50 (50% cell growth inhibition) over NCI's 60 human tumor cell lines, 48h incubation with drug

Chain of Human Serum Albumin (P02768 25-609): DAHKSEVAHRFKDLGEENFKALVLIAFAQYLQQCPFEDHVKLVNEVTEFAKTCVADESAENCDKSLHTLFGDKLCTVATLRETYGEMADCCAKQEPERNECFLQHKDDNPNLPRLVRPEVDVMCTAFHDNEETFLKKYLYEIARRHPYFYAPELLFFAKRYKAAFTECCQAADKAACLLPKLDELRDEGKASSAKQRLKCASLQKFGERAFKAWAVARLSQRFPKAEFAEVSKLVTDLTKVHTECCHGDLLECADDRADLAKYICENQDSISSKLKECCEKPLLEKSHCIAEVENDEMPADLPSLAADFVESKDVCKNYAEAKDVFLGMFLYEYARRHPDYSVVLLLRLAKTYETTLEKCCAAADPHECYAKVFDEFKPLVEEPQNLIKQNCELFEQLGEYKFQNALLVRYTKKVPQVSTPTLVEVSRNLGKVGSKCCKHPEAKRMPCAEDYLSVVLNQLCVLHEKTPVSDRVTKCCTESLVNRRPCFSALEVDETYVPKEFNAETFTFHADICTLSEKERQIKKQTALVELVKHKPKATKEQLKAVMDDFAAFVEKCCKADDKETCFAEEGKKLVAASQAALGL

CCc1c2c(nc3ccc(O)cc13)-c1cc3c(c(=O)n1C2)COC(=O)[C@]3(O)CC [SN-38, 7-ethyl-10-hydroxycamptothecin]
percentage (%) of lactone form at equilibrium (Human Serum Albumin): higher percentage (%) of lactone form at equilibrium than 20(S) camptothecin of the formula 3 and 9-aminocamptothecin of the formula 6

5-(2'-N-pyrrolidinoethoxy)-7-ethylcamptothecin [Example 39]
GI50 [1, 2]: 18.6 µM

CC[C@@]1(O)C(=O)OCc2c1cc1n(c2=O)C(OCCO)c2cc3c([N+](=O)[O-])cccc3nc2-1 (stereo partly shown) [9-Nitro-5-(2'-hydroxyethoxy)camptothecin]
GI50 ([1]; Homo sapiens, 48 h): 7.94 µM

CC[C@@]1(O)C(=O)OCc2c1cc1n(c2=O)C(OCC(F)(F)F)c2cc3cc(O)ccc3nc2-1 (stereo partly shown) [Example 27, 10-Hydroxy-5-trifluoroethoxycamptothecin]
GI50 [1, 2]: 0.38 µM

CCOC1c2cc3c(O)cccc3nc2-c2cc3c(c(=O)n21)COC(=O)[C@]3(O)CC (stereo partly shown) [Example 11, 5-Ethoxy-9-hydroxycamptothecin]
GI50 [1, 2]: 6.68 µM

5-(2'-aminoethoxy)-7-ethylcamptothecin [Example 37]
GI50 [1, 2]: 18.6 µM

CC[C@@]1(O)C(=O)OCc2c1cc1n(c2=O)C(OCCOC)c2cc3ccccc3nc2-1 (stereo partly shown) [Example 43, 5-(2'-methoxyethoxy)camptothecin]
GI50 [1, 2]: 2.23 µM

— EP1138682A1, “Novel water soluble c-ring analogues of 20 (s)-camptothecin” (priority 1996, dated 1997)
